Data on three molecules can be found in US20240132955A1, “BENIGN SCAR-FORMING CLEAVABLE LINKERS” (Ultima Genomics, Inc., priority 2021, published 2024).

Assay type in all cases: biochemical
For assay [1], the system named is template nucleic acid sequence. Nature of the assay: Sequencing assays with different capping reagents (Example 6, FIG. 11). The settings on record: for fluorescence intensities for subsequent incorporation steps: capping between flows, compared with assay without capping reagents. As for the experimental part:
Extension and sequencing performance were tested for a set of labeled nucleotides and capping reagents. The labeled nucleotides used in this example consisted of the dye-linkers as shown in FIG. 9A on each of the four nucleotides. A set of sequencing assays were performed by extending a primer against a template nucleic acid sequence in the presence of alternating flows of single fluorescently labeled nucleotides provided as cycles of U, A, C, and then G. In between each flow, the fluorescent labels were detected, cleaved, and optionally capped with one of ethyl propiolate (EP), iodoacetamide (IAc), methyl methanethiosulfonate (MMTS), or dipyridyl disulfide (DPDS). Each labeled nucleotide flow was then followed by a “dark tap” flow consisting of 100% unlabeled nucleotides to maintain phasing.
FIG. 11 summarizes the results of the sequencing assays in table 1100. Table 1100 provides the results of uridine, adenosine, cytidine, and guanosine incorporation steps performed without any capping agents or in the presence of different capping agents. Assay A illustrates results from sequencing assays performed without capping reagents. Following a high-efficiency first nucleotide incorporation step with labeled uridine, subsequent nucleotide incorporation steps were suppressed, including subsequent uridine additions.

The test system of assay [2] is template strand comprising the 3′ sequence TCAGTGGTTG
The assay is described as follows: Sequencing assay with capping reagent DPDS in U dark tap flows (Example 5). The settings on record: DPDS only in U dark tap flows; 100% labeled U, 10% A, 20% C, 10% G. From the text: In this example, a set of labeled nucleotide reagents were contacted to a primer hybridized to a template strand comprising the 3′ sequence TCAGTGGTTG under conditions suitable for extension. Fluorescently labeled adenosine, cytidine, and guanosine nucleotides were of the structure indicated in FIG. 10A, while labeled uridine nucleotides were of the structure provided in FIG. 10B. Different canonical nucleotide types were provided in separate, sequential flows, starting with uridine (U), followed by adenosine (A), cytidine (C), and finally guanosine (G), before repeating the cycle beginning again with U. Flows contained anywhere from 10% to 100% labeled nucleotides, with the remaining nucleotides provided in their natural, unlabeled form. In between each flow, the fluorescent labels were detected, cleaved, and optionally capped. Each labeled nucleotide flow was then followed by a “dark tap” flow consisting of 100% unlabeled nucleotides in order to maintain phasing.
FIG. 10E summarizes the sequencing results of an assay utilizing flows with 100% labeled U, 10% labeled A, 20% labeled C, 10% labeled G, and the capping reagent DPDS. provided in only the U “dark tap” nucleotide flows. […] This was likely due to capping reagent cleavage from the nucleotide scars, as the linker cleavage reagent was likely also active in removing caps from scar moieties. […]

Assay [3] has as its system template nucleic acid starting with AGTCTTTGGGTT
Nature of the assay: Sequencing assays with capping or immolating linkers (Example 9, FIG. 16). To be noted: DPDS in U dark tap flows; 100% labeled U, 10% A, 20% C, 10% G; compared to FIG. 16A. On the procedure: In this example, a set of sequencing assays were performed by extending a primer against the same template nucleic acid starting with AGTCTTTGGGTT in the presence of alternating flows of single fluorescently labeled nucleotides provided as cycles of U, A, C, and then G. In between each flow, the fluorescent labels were detected, cleaved, and optionally capped with dipyridyl disulfide (DPDS). Each labeled nucleotide flow was then followed by a “dark tap” flow consisting of 100% unlabeled nucleotides to maintain phasing. Furthermore, some assays utilized nucleotides with immolating linkers.
In each figure, the y-axes provide fluorescence intensity following labeled nucleotide incorporation, and the four plots (from top to bottom) separately provide the results of uridine, adenosine, cytidine, and guanosine incorporation steps, with individual cycles progressing from left to right. In particular, a closer look is taken at the first 4 flow-cycles of U-A-C-G, where nucleotides are expected to be incorporated in the order of T-C (cycle 1; U, A, C, G flows being a complete single cycle), A-G (cycle 2), AAA-CCC (cycle 3), AA (cycle 4). Here nucleotides incorporated in each U-A-C-G flow-cycle are separated with square brackets. […]

`NC(=O)CI` [IAc, iodoacetamide]: in assay [1], the “fluorescence intensities for subsequent incorporation steps” value is “high intensities”.
dipyridyl disulfide [DPDS]: the “incorporation efficiency for the next flow (A)” value in assay [2] was “increased the incorporation efficiency for the next flow”. Besides, in assay [1] (among EP, IAc, MMTS, DPDS), the “effectiveness as capping reagent” value was “most effective”. Further, the “fluorescence intensities from subsequent nucleotide incorporations, comparison among capping assays” value in assay [1] (assays B-E) is “highest intensities”. Besides, in assay [1], the “fluorescence intensities for subsequent incorporation steps” value is on record as “high intensities”. Also, the “labeled A incorporation” value in assay [3] was “greatly enhanced”.
Turning to `C#CC(=O)OCC` [EP, ethyl propiolate], in assay [1], the “fluorescence intensities for subsequent incorporation steps” value was “high intensities”.
